Laboratory results taken from patent US10935498B1, “Fluorescent probe for detecting nitroreductase and preparation method and use thereof in enzymatic reaction” (SOUTH CHINA UNIVERSITY OF TECHNOLOGY, priority 2018, dated 2021).

Assays:
[1] = Solubility (stated property); type: physicochemical
[2] = Photostability (stated property); type: physicochemical
nitroreductase = assay: Fluorescent response of the probe to nitroreductase (NTR) in PBS buffer; type: biochemical; conditions: probe 10 μM, excitation 500 nm
Experimental: 1.5 mg of the solid fluorescent compound, 3-(4-(2-(4′-(diphenylamino)-3-((4-nitrobenzyl)oxy)-[1,1′-biphenyl]-4-yl)vinyl)quinolin-1-ium-1-yl)propane-1-sulfonate (TAE-NQS, prepared in Example 1), was dissolved in 2 mL of DMSO, and prepared into a 1 mM stock solution of the fluorescent compound. Before the test, of the fluorescent compound was diluted with a phosphate buffer (10 mM, pH 7.4), and a solution system to be tested containing 1% DMSO was obtained (final concentration of the probe was 10 μM).
3 μL of the above-mentioned stock solution of the fluorescent compound was drawn, and a blank control sample and test samples were prepared with PBS buffer solution (10 mM, pH=7.4). […] The samples were incubated at 37° C. for 15 minutes, then the absorption spectra ranging from 350 nm to 700 nm were recorded, and the fluorescence spectra were measured under the excitation light of 500 nm. […]
When the concentration of NTR was 2 μg/mL and the concentration of the probe was 10 μM, the fluorescence intensity varied over time, shown as FIG. 7. […] By controlling the temperature to be 37° C. and the incubation time to be 5 minutes, the fluorescence spectra under the excitation wavelength of 500 nm for each test sample were recorded. […]

[3] = Toxicity (stated property)

O=[N+]([O-])c1ccc(COc2cc(-c3ccc(N(c4ccccc4)c4ccccc4)cc3)ccc2C=Cc2cc[n+](CCCS(=O)(=O)[O-])c3ccccc23)cc1 [TAE-NQS, 3-(4-(2-(4′-(diphenylamino)-3-((4-nitrobenzyl)oxy)-[1,1′-biphenyl]-4-yl)vinyl)quinolin-1-ium-1-yl)propane-1-sulfonate]
solubility in solvents such as DMSO and DMF ([1]; DMSO, DMF): easily soluble | solubility in water ([1]; water): slightly soluble | photostability [2]: good | time in which the enzymatic reaction was completed (nitroreductase; NTR 0 μg/mL to 5 μg/mL, PBS pH 7.4, 37° C.): ≤ 30 min | fluorescence intensity compared with the blank sample (nitroreductase; nitroreductase 2 μg/mL, NADH 100 μM, PBS 10 mM pH 7.4, 37° C., 15 minutes): changed significantly | toxicity [3]: non-toxic
